{"source": "paper PMC11864979", "about": "“First-in-class ultralong-target-residence-time p38α inhibitors as a mitosis-targeted therapy for colorectal cancer” (Nature Cancer, 2025)", "assay_in_all_cases": "selectivity profiling in a panel of 340 wild-type kinases (Reaction Biology Europe)", "type_in_all_cases": "binding", "key": {"340 wild-type kinases [1]": {"biological_target": "T1, 340 wild-type kinases (Homo sapiens, UniProt Q13882)", "T1 construct": "purchased Reaction Biology Europe", "T1 sequence (Q13882 whole entry)": "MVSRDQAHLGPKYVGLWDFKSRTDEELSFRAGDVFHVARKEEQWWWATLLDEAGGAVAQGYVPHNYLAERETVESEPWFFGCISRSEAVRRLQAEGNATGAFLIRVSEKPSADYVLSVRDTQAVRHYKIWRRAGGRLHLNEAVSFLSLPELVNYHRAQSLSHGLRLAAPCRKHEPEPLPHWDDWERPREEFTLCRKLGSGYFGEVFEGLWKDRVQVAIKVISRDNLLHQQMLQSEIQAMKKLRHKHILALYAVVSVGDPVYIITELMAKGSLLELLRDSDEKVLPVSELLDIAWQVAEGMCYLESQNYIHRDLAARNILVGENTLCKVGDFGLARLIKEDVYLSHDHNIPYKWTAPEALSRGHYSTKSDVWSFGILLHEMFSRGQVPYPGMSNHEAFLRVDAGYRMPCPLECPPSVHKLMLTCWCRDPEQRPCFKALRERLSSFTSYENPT"}, "340 wild-type kinases [2]": {"biological_target": "T2, 340 wild-type kinases (Homo sapiens, UniProt P36888)", "T2 construct": "purchased Reaction Biology Europe", "T2 sequence (P36888 27-993)": "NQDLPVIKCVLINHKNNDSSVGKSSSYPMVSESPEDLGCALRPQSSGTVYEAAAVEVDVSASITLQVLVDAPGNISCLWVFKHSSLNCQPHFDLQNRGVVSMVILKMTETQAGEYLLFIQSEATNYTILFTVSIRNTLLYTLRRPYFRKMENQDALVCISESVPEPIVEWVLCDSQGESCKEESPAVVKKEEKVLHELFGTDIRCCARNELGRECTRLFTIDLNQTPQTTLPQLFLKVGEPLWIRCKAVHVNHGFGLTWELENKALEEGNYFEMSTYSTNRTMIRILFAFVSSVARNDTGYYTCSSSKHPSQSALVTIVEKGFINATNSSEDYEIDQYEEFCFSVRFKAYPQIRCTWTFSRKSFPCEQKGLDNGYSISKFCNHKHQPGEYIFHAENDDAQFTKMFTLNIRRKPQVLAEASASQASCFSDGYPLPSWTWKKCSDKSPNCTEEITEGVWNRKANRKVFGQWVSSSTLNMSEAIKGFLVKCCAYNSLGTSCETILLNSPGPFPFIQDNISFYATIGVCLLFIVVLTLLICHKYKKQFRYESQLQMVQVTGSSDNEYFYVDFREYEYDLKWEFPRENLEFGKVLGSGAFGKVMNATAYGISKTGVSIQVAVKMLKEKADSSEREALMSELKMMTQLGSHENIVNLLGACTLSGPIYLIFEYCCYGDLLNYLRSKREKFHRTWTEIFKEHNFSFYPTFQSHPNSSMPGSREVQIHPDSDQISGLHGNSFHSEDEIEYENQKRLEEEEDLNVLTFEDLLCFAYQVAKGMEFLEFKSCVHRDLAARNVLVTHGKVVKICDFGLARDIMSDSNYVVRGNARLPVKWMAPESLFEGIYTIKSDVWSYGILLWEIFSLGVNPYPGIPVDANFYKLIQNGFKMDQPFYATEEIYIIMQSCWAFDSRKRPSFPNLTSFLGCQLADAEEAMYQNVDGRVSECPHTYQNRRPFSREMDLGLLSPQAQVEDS"}, "340 wild-type kinases [3]": {"biological_target": "T3, 340 wild-type kinases (Homo sapiens, UniProt P54760)", "T3 construct": "purchased Reaction Biology Europe", "T3 sequence (P54760 16-987)": "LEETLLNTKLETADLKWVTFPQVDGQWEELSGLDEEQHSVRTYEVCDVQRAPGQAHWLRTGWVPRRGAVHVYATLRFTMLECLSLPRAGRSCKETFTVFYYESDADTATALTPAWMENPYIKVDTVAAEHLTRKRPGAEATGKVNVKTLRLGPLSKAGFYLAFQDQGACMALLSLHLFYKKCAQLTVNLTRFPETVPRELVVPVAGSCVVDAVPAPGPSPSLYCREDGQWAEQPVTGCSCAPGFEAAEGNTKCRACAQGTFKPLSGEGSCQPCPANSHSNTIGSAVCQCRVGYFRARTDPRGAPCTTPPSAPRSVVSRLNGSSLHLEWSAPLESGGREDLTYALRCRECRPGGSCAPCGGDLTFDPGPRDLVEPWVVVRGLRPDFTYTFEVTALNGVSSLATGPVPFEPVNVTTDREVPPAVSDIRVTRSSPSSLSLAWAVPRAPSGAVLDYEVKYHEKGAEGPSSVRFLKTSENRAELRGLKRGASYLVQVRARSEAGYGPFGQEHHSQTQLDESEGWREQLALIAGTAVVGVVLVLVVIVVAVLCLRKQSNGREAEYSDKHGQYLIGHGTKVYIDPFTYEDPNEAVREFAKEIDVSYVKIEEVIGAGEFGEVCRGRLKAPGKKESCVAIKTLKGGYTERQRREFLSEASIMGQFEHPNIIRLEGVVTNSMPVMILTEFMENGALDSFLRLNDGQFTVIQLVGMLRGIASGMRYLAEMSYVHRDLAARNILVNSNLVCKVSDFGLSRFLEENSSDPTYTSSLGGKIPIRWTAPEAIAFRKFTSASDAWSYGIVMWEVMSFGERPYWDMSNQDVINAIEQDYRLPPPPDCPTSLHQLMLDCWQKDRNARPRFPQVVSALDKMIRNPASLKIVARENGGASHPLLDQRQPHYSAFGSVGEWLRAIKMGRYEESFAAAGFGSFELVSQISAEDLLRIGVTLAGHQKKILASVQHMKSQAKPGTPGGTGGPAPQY"}}, "note": "Where two headings read alike, the source gives them in different places.", "data": [{"compound": "CNC(=O)c1ccc2c(c1)C(=O)c1ccc(Nc3ccc(F)c(NC(=O)C4CC4)c3)cc1CC2", "note": "[Compound 2015]", "values": [{"measurement": "remaining activity at 0.2 µM", "setting": "340 wild-type kinases [1]; 0.2 µM 2015, read-out: BRK residual activity", "value": 100, "unit": "%"}, {"measurement": "remaining activity at 1 µM", "setting": "340 wild-type kinases [1]; 1 µM 2015, read-out: BRK residual activity", "value": 108, "unit": "%"}, {"measurement": "remaining activity at 0.2 µM", "setting": "340 wild-type kinases [1]; BRK, 0.2 µM, read-out: residual activity", "value": 100, "unit": "%"}, {"measurement": "remaining activity at 1 µM", "setting": "340 wild-type kinases [1]; BRK, 1 µM, read-out: residual activity", "value": 108, "unit": "%"}, {"measurement": "remaining activity at 0.2 µM", "setting": "340 wild-type kinases [2]; 0.2 µM 2015, read-out: FLT3 residual activity", "value": 84.5, "unit": "%"}, {"measurement": "remaining activity at 1 µM", "setting": "340 wild-type kinases [2]; 1 µM 2015, read-out: FLT3 residual activity", "value": 80, "unit": "%"}, {"measurement": "remaining activity at 0.2 µM", "setting": "340 wild-type kinases [2]; FLT3, 0.2 µM, read-out: residual activity", "value": 84.5, "unit": "%"}, {"measurement": "remaining activity at 1 µM", "setting": "340 wild-type kinases [2]; FLT3, 1 µM, read-out: residual activity", "value": 80, "unit": "%"}, {"measurement": "remaining activity at 0.2 µM", "setting": "340 wild-type kinases [3]; 0.2 µM 2015, read-out: EPHB4 residual activity", "value": 101, "unit": "%"}, {"measurement": "remaining activity at 1 µM", "setting": "340 wild-type kinases [3]; 1 µM 2015, read-out: EPHB4 residual activity", "value": 91.8, "unit": "%"}, {"measurement": "remaining activity at 0.2 µM", "setting": "340 wild-type kinases [3]; EPHB4, 0.2 µM, read-out: residual activity", "value": 101, "unit": "%"}, {"measurement": "remaining activity at 1 µM", "setting": "340 wild-type kinases [3]; EPHB4, 1 µM, read-out: residual activity", "value": 91.8, "unit": "%"}]}]}
